Measured values published in BigSolDB 2.1.

CC(=O)Nc1ccc(O)cc1
solubility (mole fraction)
Details	298.15 K	303.15 K	308.15 K	313.15 K	318.15 K	323.15 K	328.15 K	333.15 K
in transcutol	0.111	0.118	0.126	0.134	0.144	0.153	0.166	0.178
in water	0.0016	0.0019	0.0023	0.0027	0.0033	0.004	0.0047	0.0055
